Data: patent US6284914A, “Highly water-soluble metalloproteinase inhibitors” (Fuji Yakuhin Kogyo Kabushiki Kaisha, priority 1995, dated 2001)
pIC50: −log10 of the molar value. Counter-ions that a name gives are not always drawn.

Legend:
collagenase (MMP-1) = target: T1, collagenase (MMP-1) (Homo sapiens, UniProt P03956); experiment: Assay for Collagenase Inhibitory Activity (MMP-1); type: biochemical; details: fluorescein-labeled bovine type I collagen substrate, 35° C., 2 hours, pH 7.5; read-out: Inhibitory activities for matrix metalloproeinases (MMPs), MMP-1, IC50 value
T1 construct: endogenous in cells; host or cells: human fibroblast
T1 sequence (P03956 100-469): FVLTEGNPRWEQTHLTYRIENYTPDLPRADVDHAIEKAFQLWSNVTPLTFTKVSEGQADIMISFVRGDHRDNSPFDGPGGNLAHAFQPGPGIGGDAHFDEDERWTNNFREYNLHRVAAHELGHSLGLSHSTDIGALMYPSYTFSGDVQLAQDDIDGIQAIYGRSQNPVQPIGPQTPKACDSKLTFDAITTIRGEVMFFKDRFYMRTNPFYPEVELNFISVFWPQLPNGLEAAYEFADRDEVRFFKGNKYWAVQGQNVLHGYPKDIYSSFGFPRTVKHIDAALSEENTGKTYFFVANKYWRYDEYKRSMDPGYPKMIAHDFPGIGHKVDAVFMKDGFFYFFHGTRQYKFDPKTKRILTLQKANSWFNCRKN
Protocol: (§1) Inhibitory activities of the compounds represented by the general formula (I) according to the invention for collagenase (metalloproteinase concerned with a tissue destruction) derived from human fibroblast were tested by the method of Y. Murawaki et al., [Journal of Hepatology, 18, p. 328-334 (1993)], and their inhibitory activities for stromelysin derived from human fibroblast were measured by the method of S. S. Twining et al., [Anal. Biochem., 143, p. 30 (1984)].
Inhibitory activities for collagenase (MMP-1) of the compounds of Examples and comparative compounds were measured by the method of Y. Murawaki et al., [Journal of Hepatology, 18, p. 328-334 (1993)]. The latent procollagenase was activated by incubating with mercury aminophenylacetate (2 mM) at 35° C. for 2 hours. The assay was done by using bovine type I collagen labeled with fluorescein as a substrate. The activated collagenase was added to the substrate solution (0.5 mg/ml) in Tris HCl buffer (50 mM, pH 7.5) containing sodium chloride (0.4 M) and calcium chloride (10 mM). The obtained solution was incubated at 35° C. for 2 hours. The enzyme digestion was stopped by the addition of o-phenanthroline (80 mM). The mixture was added with pig spleen elastase solution (25 μg/ml) in the above Tris HCl buffer, and incubated 37° C. for 10 min. The obtained solution was added with 70% ethanol and Tris HCl buffer (170 mM, pH 9.5) containing sodium chloride (0.61 M), whereby the indigested substrate was sedimented by centrifuging at 3000 g for 20 min. The supernatant was taken, and its intensity of fluorescence was determined by the excitation wavelength (495 nm) and the measured wavelength (520 nm), and the inhibitory activity was obtained. IC50 is a concentration of a compound assayed in the digesting enzyme, whereby the splitting of the substrate was decreased to 50% compared with that attained by the enzyme alone.

stromelysin (MMP-3) = target: T2, stromelysin (MMP-3) (Homo sapiens, UniProt P08254); experiment: Assay for Stromelysin Inhibitory Activity (MMP-3); type: biochemical; details: fluorescein-labeled casein substrate, 37° C., 2 hours, pH 7.8; read-out: Inhibitory activities for matrix metalloproeinases (MMPs), MMP-3, IC50 value
T2 construct: endogenous in cells; host or cells: human fibroblast
T2 sequence (P08254 100-477): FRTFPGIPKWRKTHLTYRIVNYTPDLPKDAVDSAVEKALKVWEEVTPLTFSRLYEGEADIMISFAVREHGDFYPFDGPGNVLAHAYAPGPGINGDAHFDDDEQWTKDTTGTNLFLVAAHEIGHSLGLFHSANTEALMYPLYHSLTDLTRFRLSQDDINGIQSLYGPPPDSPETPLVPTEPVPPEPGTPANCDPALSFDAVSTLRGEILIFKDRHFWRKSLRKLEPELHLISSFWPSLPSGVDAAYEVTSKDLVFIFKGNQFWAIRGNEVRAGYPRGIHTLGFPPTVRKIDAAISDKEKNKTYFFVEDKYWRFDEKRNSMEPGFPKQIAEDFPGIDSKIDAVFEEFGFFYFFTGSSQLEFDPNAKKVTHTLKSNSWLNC
Protocol: as §1
Inhibitory activities for stromelysin (MMP-3) of the compounds of Examples and comparative compounds were measured by the method of S. S. Twining et al., [Anal. Biochem., 143, p. 30 (1984)]. The latent prostromelysin was incubated with human plasmin (20 μg/ml) for the activation at 37° C. for 2 hours, and then the incubate was added with diisopropyl fluorophosphate solution (2.8 mg/ml) to stop the reaction. The assay was done by using casein labeled with fluorescein as the substrate. The activated stromelysin was added to a substrate solution (1 mg/ml) in Tris HCl buffer (50 mM, pH 7.8) containing calcium chloride (10 mM). The obtained solution was incubated at37° C. for 2 hours. The enzyme digestion forthesubstrate was stopped by adding 5% trichloroacetic acid. The indigested substrate was sedimented by centrifuging at 3000 g for 20 min. The supernatant was taken and added with Tris HCl buffer (0.5 M, pH 8.5), whereby its intensity of fluorescence was determined by the excitation wavelength (495 nm) and the measured wavelength (520 nm), and the inhibitory activity was obtained. IC50 is a concentration of a compound assayed in the digesting enzyme, whereby the splitting of the substrate was decreased to 50% compared with that attained by the enzyme alone.

[1] = Measurement of Solubility in Water; type: physicochemical; details: distilled water, 20±5° C., 30 min., checked by eye; for solubility at 0.5 h: water
Protocol: A compound of Examples or a comparative compound was added to distilled water and shaken vigorously at 20±5° C. for 30 seconds at 5 min. interval. After 30 min., it was checked by watching with eye whether the compound was dissolved or not.

Row | Structure (SMILES) | pIC50 (collagenase (MMP-1)) | pIC50 (stromelysin (MMP-3)) | solubility at 0.5 h [1] [mg/mL] | Solubility in water ([1]; Monosodium Salt) [mg/mL]
1 | CNC(=O)[C@H](Cc1ccc(S(=O)(=O)O)cc1)NC(=O)[C@H](CC(C)C)C(CSc1cccs1)C(=O)NO (single isomer, unassigned) [Example 5 (Isomer A), N-[4-(N-Hydroxyamino)-2(R)-isobutyl-3(R or S)-(thienylthiomethylene)succinyl]-L-4'-sulfophenylalanine-N-methylamide, Monosodium Salt] | 8.10 | 8.10 | > 320 | –
2 | CNC(=O)[C@H](Cc1ccc(OS(=O)(=O)O)cc1)NC(=O)C(CC(=O)NO)CC(C)C (single isomer, unassigned) [Example 1 (Isomer B), N-[4-(N-Hydroxyamino)-2(R or S)-isobutylsuccinyl]-O-sulfo-L-tyrosine-N-methylamide, Monosodium Salt] | 8.29 | 6.30 | – | –
3 | CNC(=O)[C@H](Cc1ccc(O)cc1)NC(=O)[C@H](CC(C)C)[C@H](CCCc1ccccc1)C(=O)NO [Comparative Compound 2, N-[4-(N-Hydroxyamino)-2(R)-isobutyl-3(S)-phenyltrimethylenesuccinyl]-L-tyrosine-N-methylamide, reference compound] | 9.82 | 8.10 | < 1 | –
4 | CNC(=O)[C@H](Cc1ccc(CNC(=N)N)cc1)NC(=O)[C@H](CC(C)C)C(CCCc1ccccc1)C(=O)NO (stereo partly drawn) [Example 14, N-[4-(N-Hydroxyamino)-2(R)-isobutyl-3(RS)-(3-phenyltrimethylene)succinyl]-L-4'-guanidomethylenephenylalanine-N-methylamide Monoacetate] | 8.40 | 8.00 | – | –
5 | CC(C)C[C@@H](C(=O)N[C@@H](Cc1ccc(NC(=N)N)cc1)C(=O)Nc1ccccc1)C(CCCc1ccccc1)C(=O)NO (stereo partly drawn) [Example 19, N-[4-(N-Hydroxyamino)-2(R)-isobutyl-3(RS)-(3-phenyltrimethylene)succinyl]-L-4'-guanidophenylalanine-N-phenylamide Monoacetate] | 8.10 | 8.00 | – | –
6 | CCCOC[C@H](C(=O)N[C@@H](Cc1ccc(OC)cc1)C(=O)NC)[C@H](CSC(C)C)C(=O)NO [Comparative Compound 4, N-[4-(N-Hydroxyamino)-2(R)-n-propyloxymethylene-3(S)-isopropylthiomethylenesuccinyl]-O-methyl-L-tyrosine-N-methylamide, reference compound] | 7.96 | 7.00 | < 1 | –
7 | CNC(=O)[C@H](Cc1ccc(OS(=O)(=O)O)cc1)NC(=O)C(CC(=O)NO)CC(C)C (single isomer, unassigned) [Example 1 (Isomer A), N-[4-(N-Hydroxyamino)-2(R or S)-isobutylsuccinyl]-O-sulfo-L-tyrosine-N-methylamide, Monosodium Salt] | – | – | > 240 | –
8 | CNC(=O)[C@H](Cc1ccc(OS(=O)(=O)O)cc1)NC(=O)[C@H](CC(C)C)C(CCCc1ccccc1)C(=O)NO (single isomer, unassigned) [Example 3 (Isomer A), N-[4-(N-Hydroxyamino)-2(R)-isobutyl-3(R or S)-(3-phenyltrimethylene)succinyl]-O-sulfo-L-tyrosine-N-methylamide, Monosodium Salt] | – | – | > 100 | –
9 | CNC(=O)[C@H](Cc1ccc(C(=N)N)cc1)NC(=O)[C@H](CC(C)C)C(CCCc1ccccc1)C(=O)NO (single isomer, unassigned) [Example 17, N-[4-(N-Hydroxyamino)-2(R)-isobutyl-3(R or S)-(3-phenyltrimethylene)succinyl]-L-4'-amidinophenylalanine-N-methylamideMonoacetate] | 8.30 | 8.30 | – | –
10 | CNC(=O)[C@H](Cc1ccc(OC)cc1)NC(=O)[C@@H](CC(=O)NO)CC(C)C [Comparative Compound 1, N-[4-(N-Hydroxyamino)-2(R)-isobutylsuccinyl]-O-methyl-L-tyrosine-N-methylamide, reference compound] | – | 6.96 | < 1 | –
11 | CNC(=O)[C@H](Cc1ccc(S(=O)(=O)O)cc1)NC(=O)C(CC(=O)NO)CC(C)C (stereo partly drawn) [Example 2, N-[4-(N-Hydroxyamino)-2(RS)-isobutylsuccinyl]-L-4'-sulfophenylalanine-N-methylamide, Monosodium Salt] | 8.38 | 6.70 | > 250 | –
12 | CNC(=O)[C@H](Cc1ccc(CNC(=N)c2ccccc2)cc1)NC(=O)[C@H](CC(C)C)C(CCCc1ccccc1)C(=O)NO (stereo partly drawn) [Example 12, N-[4-(N-Hydroxyamino)-2(R)-isobutyl-3(RS)-(3-phenyltrimethylene)succinyl]-L-4'-benzimidoyliminomethylenephenylalanine-N-methylamide Monoacetate] | 8.00 | 8.00 | – | –
13 | CNC(=O)[C@H](Cc1ccc(CNC(C)=N)cc1)NC(=O)[C@H](CC(C)C)C(CCCc1ccccc1)C(=O)NO (single isomer, unassigned) [Example 10, N-[4-(N-Hydroxyamino)-2(R)-isobutyl-3(R or S)-(3-phenyltrimethylene)succinyl]-L-4'-acetimidoyliminomethylenephenylalanine-N-methylamide Monoacetate] | 8.15 | 7.82 | – | –
14 | CNC(=O)[C@H](Cc1ccc(CNC(C)=O)cc1)NC(=O)[C@H](CC(C)C)C(CCCc1ccccc1)C(=O)NO (stereo partly drawn) [Example 13, N-[4-(N-Hydroxyamino)-2(R)-isobutyl-3(RS)-(3-phenyltrimethylene)succinyl]-L-4'-acetamidomethylenephenylalanine-N-methylamide] | 8.40 | 8.00 | – | –
15 | CC(C)C[C@@H](C(=O)N[C@@H](Cc1ccc(OS(=O)(=O)O)cc1)C(=O)Nc1cccc2ccccc12)C(CCCc1ccccc1)C(=O)NO (stereo partly drawn) [Example 18, N-[4-(N-Hydroxyamino)-2(R)-isobutyl-3(RS)-(3-phenyltrimethylene)succinyl]-O-sulfo-L-tyrosine-N-1-naphthylamide, Monosodium Salt] | 6.30 | 8.22 | – | –
16 | CNC(=O)[C@H](Cc1ccc(S(=O)(=O)O)cc1)NC(=O)[C@H](CC(C)C)C(CSc1cccs1)C(=O)NO (single isomer, unassigned) [Example 5 (Isomer B), N-[4-(N-Hydroxyamino)-2(R)-isobutyl-3(R or S)-(thienylthiomethylene)succinyl]-L-4'-sulfophenylalanine-N-methylamide, Monosodium Salt] | – | – | – | > 300
17 | CNC(=O)[C@H](Cc1ccccc1)NC(=O)[C@H](CC(C)C)[C@H](CSc1cccs1)C(=O)NO [Comparative Compound 3, N-[4-(N-Hydroxyamino)-2(R)-isobutyl-3(S)-thienyltiomethylenesuccinyl]-L-phenylalanine-N-methylamide, reference compound] | – | – | < 1 | –
